From US6841578B2, “Treatment and prevention of mucositis in cancer patients” (priority 2001, dated 2005)

Legend:
[1] = test system: NF-κB; conditions: induction by TNF-α; phosphorylation and nuclear translocation of p65 subunit suppressed; cited from earlier work
[2] = test system: radiation-induced mucositis; assay: Hamster model of acute radiation-induced mucositis treated with resveratrol; type: in vivo, Male Golden Syrian hamsters; conditions: for percentage of days where hamsters had a mucositis score of three or higher: qd, day -1 to day 20, 40 Gy on day 0, control 46.0%

Oc1ccc(/C=C/c2cc(O)cc(O)c2)cc1 [resveratrol, trans-3,4′,5-trihydroxystilbene]
activation of NF-κB [1]: blocked the activation of NF-κB
percentage of days where hamsters had a mucositis score of three or higher ([2]; 1 mM resveratrol, intraperitoneal): 21.6%
percentage of days where hamsters had a mucositis score of three or higher ([2]; 5 mM resveratrol, intraperitoneal): 31.2%
severity of mucositis compared to the control ([2]; intraperitoneal, 1 mM and 5 mM (FIG. 2)): reduced the severity of mucositis
efficacy of 1 mM compared with 5 mM treatment ([2]; intraperitoneal, 1 mM versus 5 mM): more effective
efficacy of topical application on mucositis ([2]; topical, tid, 1 mM and 5 mM): not statistically significant, indicated a trend of efficacy
